Measured values as given in PubChem BioAssay AID248 (DTP/NCI, 2004).
Where “and” joins values, the source holds several entries; their conditions need not be identical. Identical values can stand only once. Toxic doses and inconclusive results are not listed. Rule as the data show it: active = T/C of 150% or more; inactive = T/C below 125%.

Test system: L1210 leukemia ip in BDF1 mice, survival T/C
Test: NCI In Vivo Anticancer Drug Screen. Data for tumor model L1210 Leukemia (intraperitoneal) in B6D2F1 (BDF1) mice
Details: endpoint: mean survival time, higher = longer survival
Summary of the method: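 Transplantable tumor model; survival measured in treated vs vehicle control mice. Value = treated/control.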

[1] = dose: 100.0 mg/kg/injection, schedule: Q01DX001 (ip), vehicle: carboxymethylcellulose (CMC)
[2] = dose: 200.0 mg/kg/injection, schedule: Q01DX001 (ip), vehicle: carboxymethylcellulose (CMC)
[3] = dose: 400.0 mg/kg/injection, schedule: Q01DX001 (ip), vehicle: carboxymethylcellulose (CMC)
[4] = dose: 50.0 mg/kg/injection, schedule: Q01DX001 (ip), vehicle: carboxymethylcellulose (CMC)
[5] = dose: 100.0 mg/kg/injection, schedule: Q04DX003 (ip), vehicle: Klucel (hydroxypropylcellulose) (HPC)
[6] = dose: 200.0 mg/kg/injection, schedule: Q04DX003 (ip), vehicle: Klucel (hydroxypropylcellulose) (HPC)
[7] = dose: 400.0 mg/kg/injection, schedule: Q04DX003 (ip), vehicle: Klucel (hydroxypropylcellulose) (HPC)
[8] = dose: 100.0 mg/kg/injection, schedule: Q01DX001 (ip), vehicle: saline
[9] = dose: 200.0 mg/kg/injection, schedule: Q01DX001 (ip), vehicle: saline
[10] = dose: 400.0 mg/kg/injection, schedule: Q01DX001 (ip), vehicle: saline
[11] = dose: 100.0 mg/kg/injection, schedule: Q01DX009 (ip), vehicle: saline with Tween-80
[12] = dose: 200.0 mg/kg/injection, schedule: Q01DX009 (ip), vehicle: saline with Tween-80
[13] = dose: 100.0 mg/kg/injection, schedule: Q01DX009 (ip), vehicle: Klucel (hydroxypropylcellulose) (HPC)
[14] = dose: 200.0 mg/kg/injection, schedule: Q01DX009 (ip), vehicle: Klucel (hydroxypropylcellulose) (HPC)
[15] = dose: 400.0 mg/kg/injection, schedule: Q01DX009 (ip), vehicle: Klucel (hydroxypropylcellulose) (HPC)
[16] = dose: 100.0 mg/kg/injection, schedule: Q04DX003 (ip), vehicle: saline with Tween-80
[17] = dose: 200.0 mg/kg/injection, schedule: Q04DX003 (ip), vehicle: saline with Tween-80
[18] = dose: 400.0 mg/kg/injection, schedule: Q04DX003 (ip), vehicle: saline with Tween-80

Measured: T/C

O=C1NC(=O)C2C3CCC(C12)C3C(c1ccccc1)c1ccccc1 (stereo unspecified)
inactive: [1] 106 % of control | [2] 95 % of control | [3] 103 % of control

CC(C)CCO[Si](C)(C)CCl
inactive: [4] 103 % of control | [1] 103 % of control | [2] 97 % of control | [3] 103 % of control

CCCCCCCCCCCCCCCC(=O)Oc1ccc(C(=S)N2CCOCC2)cc1
inactive: [5] 103 % of control | [6] 99 % of control | [7] 99 % of control

C=CCONC(=O)Oc1ccccc1
inactive: dose: 75.0 mg/kg/injection, schedule: Q01DX001 (ip), vehicle: other 106 % of control | dose: 150.0 mg/kg/injection, schedule: Q01DX001 (ip), vehicle: other 97 % of control

O=C1NN=C(c2ccccc2)C1Cc1ccccc1 (stereo unspecified)
inactive: [8] 94 % of control | [9] 94 % of control | [10] 105 % of control

c1ccc(-c2ccccc2SSc2ccccc2-c2ccccc2)cc1
inactive: [1] 96 % of control | [2] 105 % of control | [3] 91 % of control

O=S(=O)(Nc1ccc(C(F)(F)F)cc1)c1ccc(C(F)(F)F)cc1
inactive: [5] 95 % of control | [6] 92 % of control

CS(=O)(=O)OCCCN(CCCOS(C)(=O)=O)c1ccc(C=Nc2ccc(-c3csc(COc4ccc(Br)cc4)n3)cc2)cc1
inactive: [11] 95 % of control | [12] 95 % of control

N#C/C(=C\c1cccs1)c1ccc([N+](=O)[O-])cc1
inactive: [13] 96 % of control | [14] 86 % of control | [15] 91 % of control

CCCN(CCC)C(=O)SCC
inactive: dose: 100.0 mg/kg/injection, schedule: Q01DX001 (ip), vehicle: saline with Tween-80 101 % of control | [16] 101 % of control and 105 % of control | dose: 200.0 mg/kg/injection, schedule: Q01DX001 (ip), vehicle: saline with Tween-80 97 % of control | [17] 100 % of control and 101 % of control | dose: 400.0 mg/kg/injection, schedule: Q01DX001 (ip), vehicle: saline with Tween-80 97 % of control | [18] 110 % of control and 117 % of control

OC1C=NC(N2CCN(c3ccccc3)CC2)=Cc2ccccc21 (stereo unspecified)
inactive: [16] 97 % of control | [17] 95 % of control | [18] 92 % of control

COC(=O)/C=C\C(=O)OC
inactive: [5] 95 % of control | [6] 100 % of control | [7] 100 % of control

O=C(CCCNC(=O)OCc1ccccc1)NCCCCCCNCCCCCCNC(=O)CCCNC(=O)OCc1ccccc1
inactive: dose: 50.0 mg/kg/injection, schedule: Q01DX001 (ip), vehicle: saline 95 % of control | [8] 95 % of control | [9] 98 % of control | [10] 98 % of control

BrCC(Br)CBr
inactive: dose: 50.0 mg/kg/injection, schedule: Q01DX009 (ip), vehicle: saline with Tween-80 94 % of control | [11] 91 % of control | [16] 94 % of control | [12] 98 % of control | [17] 102 % of control

CCC[P+](c1ccccc1)(c1ccccc1)c1ccccc1
inactive: dose: 3.13 mg/kg/injection, schedule: Q01DX009 (ip), vehicle: saline with Tween-80 123 % of control | dose: 3.13 mg/kg/injection, schedule: Q04DX003 (ip), vehicle: saline with Tween-80 102 % of control | dose: 5.56 mg/kg/injection, schedule: Q01DX009 (ip), vehicle: saline with Tween-80 118 % of control | dose: 6.25 mg/kg/injection, schedule: Q01DX009 (ip), vehicle: saline with Tween-80 118 % of control | dose: 6.25 mg/kg/injection, schedule: Q04DX003 (ip), vehicle: saline with Tween-80 96 % of control | dose: 8.33 mg/kg/injection, schedule: Q01DX009 (ip), vehicle: saline with Tween-80 121 % of control | dose: 9.5 mg/kg/injection, schedule: Q01DX001 (ip), vehicle: other 111 % of control | dose: 12.5 mg/kg/injection, schedule: Q01DX001 (ip), vehicle: carboxymethylcellulose (CMC) 101 % of control | dose: 12.5 mg/kg/injection, schedule: Q04DX003 (ip), vehicle: saline with Tween-80 105 % of control | dose: 12.5 mg/kg/injection, schedule: Q04DX003 (ip), vehicle: saline 100 % of control | dose: 18.75 mg/kg/injection, schedule: Q01DX009 (ip), vehicle: saline with Tween-80 120 % of control | dose: 19.0 mg/kg/injection, schedule: Q01DX001 (ip), vehicle: other 102 % of control | dose: 25.0 mg/kg/injection, schedule: Q01DX001 (ip), vehicle: carboxymethylcellulose (CMC) 104 % of control | dose: 25.0 mg/kg/injection, schedule: Q04DX003 (ip), vehicle: saline with Tween-80 105 % of control | dose: 25.0 mg/kg/injection, schedule: Q04DX003 (ip), vehicle: saline 108 % of control | dose: 38.0 mg/kg/injection, schedule: Q01DX001 (ip), vehicle: other 107 % of control | [4] 99 % of control | dose: 50.0 mg/kg/injection, schedule: Q04DX003 (ip), vehicle: saline with Tween-80 105 % of control

Cc1ccc(C(C)C)c(OC(=O)NCCCCCCNC(=O)Oc2cc(C)ccc2C(C)C)c1
inactive: [13] 93 % of control | [14] 94 % of control | [15] 98 % of control

CCN(CC)C(=O)C1CCC(CCc2c[nH]c3ccccc23)NC1 (stereo unspecified)
inactive: [8] 94 % of control

NC(=O)c1c2n(c3ncnc(N)c13)C1OC(CO)C(O)C1S2 (stereo unspecified)
inactive: dose: 25.0 mg/kg/injection, schedule: Q01DX009 (ip), vehicle: water 91 % of control | dose: 50.0 mg/kg/injection, schedule: Q01DX009 (ip), vehicle: water 91 % of control

CN(N=Nc1ccc(C(N)=O)cc1)C1CCCCC1
inactive: dose: 100.0 mg/kg/injection, schedule: Q01DX001 (ip), vehicle: other 91 % of control | dose: 200.0 mg/kg/injection, schedule: Q01DX001 (ip), vehicle: other 107 % of control

COc1ccc(-c2ccc(OC)cc2OC)c(OC)c1
inactive: [1] 112 % of control | [2] 107 % of control | [3] 112 % of control

COc1ccc(Cl)cc1/C=C\C=N\NC(=O)C[N+](C)(C)C
inactive: dose: 15.0 mg/kg/injection, schedule: Q01DX001 (ip), vehicle: carboxymethylcellulose (CMC) 95 % of control | dose: 30.0 mg/kg/injection, schedule: Q01DX001 (ip), vehicle: carboxymethylcellulose (CMC) 93 % of control

Cc1c(Cl)cccc1NC(=O)NCCc1ccccc1
inactive: [11] 94 % of control and 101 % of control | dose: 100.0 mg/kg/injection, schedule: Q04DX002 (ip), vehicle: saline with Tween-80 100 % of control and 103 % of control | [16] 100 % of control | [12] 101 % of control and 104 % of control | dose: 200.0 mg/kg/injection, schedule: Q04DX002 (ip), vehicle: saline with Tween-80 93 % of control and 97 % of control | [17] 101 % of control | dose: 400.0 mg/kg/injection, schedule: Q01DX009 (ip), vehicle: saline with Tween-80 100 % of control and 101 % of control | dose: 400.0 mg/kg/injection, schedule: Q04DX002 (ip), vehicle: saline with Tween-80 96 % of control and 97 % of control | [18] 101 % of control
